Reference: patent US9776990B2, “Isoindolone derivatives” (AbbVie Inc., priority 2012, dated 2017)
Marks after values point to notes of the source that are not given here.

Experiments:
[1] = test system: FaDu; assay: Proliferation panel assay, FaDu; format: cell-based; details: Homo sapiens, 120 h, Head & Neck, 5 days, read-out: Cellular Proliferation EC50
Method: (§1) The impact of compounds of the Examples on cancer cell proliferation was determined using the breast cancer cell line MX-1 (ATCC) in a 3-day proliferation assay. MX-1 cells were maintained in RPMI supplemented with 10% FBS at 37 C.° and an atmosphere of 5% CO2. For compound testing, MX-1 cells were plated in 96-well black bottom plates at a density of 5000 cells/well in 90 μl of culture media and incubated at 37° overnight to allow cell adhesion and spreading. Compound dilution series were prepared in DMSO via a 3-fold serial dilution from 3 mM to 0.1 μM. […]
(§2) Luminescence readings from the Cell Titer Glo assay were normalized to the DMSO treated cells and analyzed using the GraphPad Prism software with sigmoidal curve fitting to obtain EC50s. The minimum significant ratio (MSR) was determined to evaluate assay reproducibility (Eastwood et al., (2006) J Biomol Screen, 11: 253-261). The overall MSR was determined to be 2.1 and a moving MSR (last six run MSR overtime) has been <2.
(§3) The compound of Example 40 was tested for its impact on proliferation of a panel of cancer cell line types (with specific cell lines tested) as set out in (Table 2). […] Cell proliferation data were analyzed as described above in the MX-1 proliferation assay to obtain the EC50 for the compounds reported in Table 2.

[2] = test system: MX-1 human breast cancer xenograft; assay: Xenograft tumor growth inhibition assay, MX-1; format: in vivo, mice; details: MX-1 xenograft; for % TGI (tumor growth inhibition): QDx14, based on day 38; for % TGD (tumor growth delay): QDx14, endpoint 1000 mm^3
Method: (§4) The effect of the compound of Example 40 to inhibit the growth of Ramos, OPM-2, MX-1, MV4-11, and HT1080 xenograft tumors was evaluated. Briefly, 0.5×10^6 human cancer cells (HT1080), 1×10^6 human cancer cells (Ramos), 5×10^6 human cancer cells (OPM-2, MV4-11) or 1:10 tumor brie (MX-1) (in S-MEM (MEM, Suspension, no Calcium, no Glutamine)) (Life Technologies Corporation) were inoculated subcutaneously into the right hind flank of female SCID or SCID-beige (MV4-11, HT1080) mice (Charles Rivers Labs) on study day 0. Compound was formulated in 2% EtOH, 5% Tween-80, 20% PEG-400, 73% HPMC (Ramos, OPM-2 and MX-1) or 5% DMSO, 5% EtOH, 30% PEG400, 60% Phosal 53 (MV4-11, HT1080). Administration of compound was initiated at the time of size match on day 8 (HT1080), day 17 (MX-1), or day 18 (Ramos, MV4-11, OPM-2). The tumors were measured by a pair of calipers twice a week starting at the time of size match and tumor volumes were calculated according to the formula V=L×W^2/2 (V: volume, mm^3; L: length, mm. W: width, m) Tumor volume was measured for the duration of the experiment until the mean tumor volume in each group reached an endpoint of >1000 mm^3.

[3] = test system: Raji; assay: Proliferation panel assay, Raji; format: cell-based; details: Homo sapiens, 120 h, Burkitt lymphoma, 5 days, read-out: Cellular Proliferation EC50
Method: as §1, §2, §3

[4] = test system: SK-LMS-1; assay: Proliferation panel assay, SK-LMS-1; format: cell-based; details: Homo sapiens, 120 h; Sarcoma, SK-LMS-1, 5 days; read-out: Cellular Proliferation EC50
Method: as §1, §2, §3

[5] = test system: OPM2; assay: Proliferation panel assay, OPM2; format: cell-based; details: Homo sapiens, OPM-2, 120 h; Multiple Myeloma, OPM2, 5 days; read-out: Cellular Proliferation EC50
Method: as §1, §2, §3

[6] = test system: MV4-11 human AML xenograft; assay: Xenograft tumor growth inhibition assay, MV4-11; format: in vivo, mice; details: MV4-11 xenograft
Method: as §4

[7] = test system: SKM1; assay: Proliferation panel assay, SKM1; format: cell-based; details: Homo sapiens, SKM-1, 120 h; AML, SKM1, 5 days; read-out: Cellular Proliferation EC50
Method: as §1, §2, §3

Cc1[nH]c(-c2cc(NS(C)(=O)=O)ccc2Oc2ccccc2)c2c1C(=O)CCC2 [Example 40, N-[3-(3-methyl-4-oxo-4,5,6,7-tetrahydro-2H-isoindol-1-yl)-4-phenoxyphenyl]methanesulfonamide]
EC50 [1]: 180 nM
% TGI (tumor growth inhibition) ([2]; group 2, 100 mg/kg/day PO): 78*** %
% TGD (tumor growth delay) ([2]; group 2, 100 mg/kg/day PO): 29*** %
% TGI (tumor growth inhibition) ([2]; group 3, 30 mg/kg/day PO): 48*** %
% TGD (tumor growth delay) ([2]; group 3, 30 mg/kg/day PO): 22*** %
% TGI (tumor growth inhibition) ([2]; group 4, 10 mg/kg/day PO): 18%
% TGD (tumor growth delay) ([2]; group 4, 10 mg/kg/day PO): 17%
% TGI (tumor growth inhibition) ([2]; group 5, 100 mg/kg/day PO): 80*** %
% TGD (tumor growth delay) ([2]; group 5, 100 mg/kg/day PO): 28*** %
% TGI (tumor growth inhibition) ([2]; group 6, 20 mg/kg/day PO): 30* %
% TGD (tumor growth delay) ([2]; group 6, 20 mg/kg/day PO): 19* %
EC50 [3]: 36 nM
EC50 [4]: 176 nM
EC50 [5]: 18 nM
mortality ([6]; 25 mg/kg/day PO, BID x 14): ^b10% mortality.
% TGI (tumor growth inhibition) ([6]; 25 mg/kg/day PO, BID x 14, based on day 31): 14^b %
mortality ([6]; 50 mg/kg/day PO, BID x 14): ^c30% mortality
% TGI (tumor growth inhibition) ([6]; 50 mg/kg/day PO, BID x 14, based on day 31): 42^c** %
mortality ([6]; 100 mg/kg/day PO, BID 5 on, 3 off x 2): ^d40% mortality
% TGI (tumor growth inhibition) ([6]; 100 mg/kg/day PO, BID 5 on, 3 off x 2, based on day 31): 67^d** %
EC50 [7]: 39 nM
